# Experimental data taken from ChEMBL document CHEMBL1201862, “PubChem BioAssay data set” (2004).
#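 Where inhibition never reached the appropriate level, the endpoint shown equals the highest concentration tested. Otherwise, values were interpolated linearly from a five-concentration, 48-hour dose response in 96-well plates. Here, GI50 denotes the concentration required for 50% inhibition of growth.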 Active and inactive are the calls of the source. No stated cut-off is given here; in the data, active = GI50 up to about 1.1 µM and inactive = higher. Starred links: 1 amine or outer side, 2 acyl side, 3 side chain; linkers in the order of their positions; H or OH if unused. Non-standard residues stand in square brackets, D forms with d. Residues, ends and D or L forms follow the SMILES beside them. *: point of attachment. X34 = CC(=O)N(C)SCC(N[*:1])C(=O)[*:2]; Cbz = O=C(OCc1ccccc1)*; Bn = c1ccc(C*)cc1; For = O=C*
# Assays:
# Experiment in all cases: DTP human tumour cell line panel, 48 h
# [1] = system: OVCAR-4
# [2] = system: HCT-15
# [3] = system: SF-539
# [4] = system: HOP-62
# [5] = system: OVCAR-8
# [6] = system: HCC 2998
# [7] = system: COLO 205
# [8] = system: HL-60
# [9] = system: NCI/ADR-RES
# [10] = system: UACC-257
# [11] = system: SNB-19
# [12] = system: TK-10
# [13] = system: MCF7
# [14] = system: SW-620
# [15] = system: SF-295
# [16] = system: T47D
# [17] = system: SK-MEL-28
# [18] = system: NCI-H460
# [19] = system: LOX IMVI
# [20] = system: SN12C
Structure (SMILES),GI50 [1],GI50 [2],GI50 [3],GI50 [4],GI50 [5],GI50 [6],GI50 [7],GI50 [8],GI50 [9],GI50 [10],GI50 [11],GI50 [12],GI50 [13],GI50 [14],GI50 [15],GI50 [16],GI50 [17],GI50 [18],GI50 [19],GI50 [20]
CC1=NN(c2nc(N)nc(/C(C#N)=C\c3cccc([N+](=O)[O-])c3)n2)C(C)(C)C1,10 µM (inactive),13.2 µM,8.2 µM (inactive),5.13 µM (inactive),7.29 µM (inactive),12.2 µM (inactive),14.9 µM (inactive),0.205 µM (active),18.8 µM (inactive),20.7 µM (inactive),10.8 µM (inactive),15.7 µM (inactive),6.82 µM (inactive),8.75 µM (inactive),10.2 µM (inactive),11 µM (inactive),19.1 µM (inactive),4.31 µM (inactive),7.13 µM (inactive),25.2 µM (inactive)
O=C(O)CC1NCc2cc3ccccc3nc21 (stereo not given),> 100 µM (inactive),> 100 µM,> 100 µM (inactive),> 100 µM (inactive),> 100 µM (inactive),> 100 µM (inactive),> 100 µM (inactive),> 100 µM (inactive),> 100 µM (inactive),> 100 µM (inactive),> 100 µM (inactive),> 100 µM (inactive),> 100 µM (inactive),> 100 µM (inactive),> 100 µM (inactive),> 100 µM (inactive),> 100 µM (inactive),> 100 µM (inactive),> 100 µM (inactive),> 100 µM (inactive)
N#Cc1c(-c2ccc(Cl)cc2)c2c([nH]c1=O)-c1cc([N+](=O)[O-])ccc1CCC2,19.6 µM (inactive),14.3 µM,17.9 µM (inactive),20.3 µM (inactive),20.5 µM (inactive),16.9 µM (inactive),19.1 µM (inactive),20 µM (inactive),20.8 µM (inactive),21.1 µM (inactive),20.5 µM (inactive),34.8 µM (inactive),24.9 µM (inactive),33.2 µM (inactive),11.3 µM (inactive),30.9 µM (inactive),21.2 µM (inactive),14.1 µM (inactive),17.5 µM (inactive),17.2 µM (inactive)
CC(=O)N(C)SCC(NC(=O)C(Cc1ccccc1)NC(=O)OCc1ccccc1)C(=O)NC(Cc1ccccc1)C(=O)NC(Cc1cn(C=O)c2ccccc12)C(=O)NC(CCCCNC(=O)OCc1ccccc1)C(=O)NC(C(=O)NC(CSN(C)C(C)=O)C(=O)NC(C(N)=O)C(C)OCc1ccccc1)C(C)OCc1ccccc1 (stereo not given) (Cbz-F[X34]FW(For)K(Cbz)T(Bn)[X34]T(Bn)-NH2; configuration not given here),54.2 µM (inactive),> 100 µM,44 µM (inactive),82.8 µM (inactive),26.1 µM (inactive),> 100 µM (inactive),> 100 µM (inactive),> 100 µM (inactive),> 100 µM (inactive),> 100 µM (inactive),18.7 µM (inactive),20.6 µM (inactive),> 100 µM (inactive),> 100 µM (inactive),16.1 µM (inactive),> 100 µM (inactive),> 100 µM (inactive),> 100 µM (inactive),> 100 µM (inactive),> 100 µM (inactive)
COC(=O)c1cc2ccc(OC(C)=O)c(OC(C)=O)c2cn1,16.7 µM (inactive),20.4 µM,19.1 µM (inactive),25.5 µM (inactive),7.64 µM (inactive),20.8 µM (inactive),18.7 µM (inactive),2.72 µM (inactive),6.5 µM (inactive),14.4 µM (inactive),> 10 µM (inactive),20.6 µM (inactive),2.79 µM (inactive),3.64 µM (inactive),4.95 µM (inactive),> 10 µM (inactive),19 µM (inactive),21.1 µM (inactive),1.42 µM (inactive),3.11 µM (inactive)
COC(=O)c1ccc(-n2c(C)nc(=O)c(-c3ccccc3)c2C)cc1,> 100 µM (inactive),> 100 µM,74 µM (inactive),> 100 µM (inactive),> 100 µM (inactive),> 100 µM (inactive),> 100 µM (inactive),> 100 µM (inactive),> 100 µM (inactive),> 100 µM (inactive),> 100 µM (inactive),> 100 µM (inactive),> 100 µM (inactive),> 100 µM (inactive),> 100 µM (inactive),> 100 µM (inactive),> 100 µM (inactive),> 100 µM (inactive),> 100 µM (inactive),> 100 µM (inactive)
Cc1cccc(-c2cccc(COCc3cccc(-c4cccc(CO)n4)n3)n2)n1,> 50 µM (inactive),35.2 µM,> 50 µM (inactive),> 50 µM (inactive),16.2 µM (inactive),> 50 µM (inactive),4.11 µM (inactive),8.28 µM (inactive),5.26 µM (inactive),12.8 µM (inactive),> 50 µM (inactive),32.5 µM (inactive),36.2 µM (inactive),> 50 µM (inactive),> 5 µM (inactive),31.2 µM (inactive),> 50 µM (inactive),43.8 µM (inactive),> 50 µM (inactive),> 50 µM (inactive)
O=[N+]([O-])c1ccc2c(c1)N=C1OC(c3c[nH]c4ccc(COc5ccccc5)cc34)C(O)=C1N2 (stereo not given),> 100 µM (inactive),> 100 µM,> 100 µM (inactive),60.3 µM (inactive),> 100 µM (inactive),21.2 µM (inactive),23.2 µM (inactive),1.74 µM (inactive),> 100 µM (inactive),33.7 µM (inactive),> 100 µM (inactive),59.2 µM (inactive),55 µM (inactive),> 100 µM (inactive),47.6 µM (inactive),> 100 µM (inactive),> 100 µM (inactive),> 100 µM (inactive),> 100 µM (inactive),> 100 µM (inactive)
Cc1ccc2c(n1)C(=O)c1ccccc1C2=O,18.7 µM (inactive),25.8 µM,> 56.5 µM (inactive),38 µM (inactive),26.7 µM (inactive),28.8 µM (inactive),16.9 µM (inactive),15.4 µM (inactive),24.4 µM (inactive),19.1 µM (inactive),26.2 µM (inactive),71.3 µM (inactive),17.3 µM (inactive),31.7 µM (inactive),25.8 µM (inactive),30.3 µM (inactive),51.5 µM (inactive),15.8 µM (inactive),17.6 µM (inactive),26.4 µM (inactive)
ON=C(CC(O)(C(F)(F)Cl)C(F)(F)Cl)CC(O)(C(F)(F)Cl)C(F)(F)Cl,4.92 µM (inactive),3.55 µM,2.07 µM (inactive),2.84 µM (inactive),6.9 µM (inactive),4.5 µM (inactive),5.04 µM (inactive),4.1 µM (inactive),4.69 µM (inactive),4.38 µM (inactive),4.25 µM (inactive),7.66 µM (inactive),3.87 µM (inactive),> 10 µM (inactive),7.89 µM (inactive),3.37 µM (inactive),6.27 µM (inactive),4.1 µM (inactive),5.26 µM (inactive),4.67 µM (inactive)
